The text below walks through data of patent US12287324B2, “Companion diagnostics for NSAIDS and donepezil for treating specific subpopulations of patients suffering from Alzheimer's disease” (University of North Texas Health Science Center at Fort …, priority 2018, dated 2025).

“Also recorded” adds a separate entry of the source.

The experiment relates to Individuals with a diagnosis of probable AD. Kind of experiment: ADCS anti-inflammatory clinical trial, 1-year exposure; MMSE and CDR-SB outcomes by treatment arm and proinflammatory endophenotype. It is filed as in vivo, human. The conditions noted are these: for MMSE Change, mean (SD): change = screening − 12-month, positive = decline; for participants with mild decline in MMSE (number) / participants with mild decline in MMSE (percent of arm): MMSE decline of 1-2 points over 12 mo; for participants who declined 3 or more points on MMSE (number) / participants who declined 3 or more points on MMSE (percent of arm): over 12-months (adverse responders); for participants with improvement in MMSE scores over 12-months (number) / participants with improvement in MMSE scores over 12-months (percent of arm): responders = improved MMSE >=1 point over 12 mo. From the text:
Data source. Banked plasma samples from the Alzheimer's Disease Cooperative Studies (ADCS) anti-inflammatory clinical trial were used. […] This was a multicenter, randomized, double-blind, placebo-controlled parallel group trial with 1-year exposure to study medications across forty ambulatory treatment centers affiliated with the ADCS. […] Inclusion criteria were as follows: age 50 or older, MMSE score of 13-26 and diagnosis of probable AD. Stable use of cholinesterase inhibitors was allowed.
Statistical Analyses. Biomarker data were transformed using the Box-Cox transformation per previously published protocols, relevant portions incorporated herein by reference. Support vector machine (SVM) analyses were utilized to build the proteomic profiles simultaneously classifying all outcome groups in R per the inventors previously published methods, relevant portions incorporated herein by reference. SVM analyses are capable of simultaneously taking into account large volume data to generate an overall profile (e.g., over and under-expression of select proteins) that most accurately classifies multiple outcomes rather than only binary outcomes. MMSE change scores were utilized as the outcome variables for the study (i.e. MMSE screening−MMSE 12-month follow-up=MMSE change). Participants were classified into four groups based on change in MMSE scores over 12-months: responders (improved MMSE scores of >=1 point over 12 mo), stable (no change in MMSE over 12 months), non-responders (MMSE decline of 1-2 points over 12 mo) or adverse responders (MMSE decline of 3 or more points over 12 mo). To build inflammatory profiles of treatment response, group status (i.e. treatment response) was utilized as the outcome variable in SVM models with pre-randomization inflammatory proteins as the predictor variable. In order to determine if the proinflammatory profile of treatment response was drug-specific, analyses were conducted utilizing the total sample as well as within specific study treatment arms.
Next, MMSE change scores were dichotomized into improvement versus stable or decline over the 12-mo period.

[1] abbreviates: High proinflammatory endophenotype (n = 8).
[2] abbreviates: Low proinflammatory endophenotype (n = 7).
Where [3] appears, read: Middle proinflammatory endophenotype (n = 36).
Where [4] appears, read: within treatment arm, no change in MMSE over 12 months.

Turning to `COc1ccc2cc([C@H](C)C(=O)O)ccc2c1` [Naproxen, naproxen], under setting [1], the “CDR-SB 12 mo, mean (SD)” value was 5.36 (3.0); the “CDR-SB Change, mean (SD)” value is recorded as 0.7 (2.5); the “MMSE 12 mo, mean (SD)” value is given as 21.2 (5.3). Besides, the “MMSE Change, mean (SD)” value (High proinflammatory endophenotype (n = 8), p = 0.02 vs placebo high group) is −0.13 (3.1). In addition, under setting [2], the “CDR-SB 12 mo, mean (SD)” value was 9.8 (4.1); the “CDR-SB Change, mean (SD)” value was −2.5 (2.1); the “MMSE 12 mo, mean (SD)” value is recorded as 16.1 (5.5); the “MMSE Change, mean (SD)” value is reported as 1.5 (3.1). Under setting [3], the “CDR-SB 12 mo, mean (SD)” value is listed as 8.4 (4.1); the “CDR-SB Change, mean (SD)” value was −2.6 (2.5); the “MMSE 12 mo, mean (SD)” value is on record as 16.5 (6.4); the “MMSE Change, mean (SD)” value is 4.2 (4.6). Also, the “decline / change in MMSE scores over a 12 mo period as compared to the placebo group” value (high end of the proinflammatory endophenotype (CRP>1015.52 & TNFα>0.64), F[1,6]=8.2, p=0.03) was “significantly reduced decline; also recorded: significantly better”. Moreover, for the setting “high proinflammatory endophenotype, 12-mo period, Placebo group 0.25”, the “average score of dichotomized MMSE change (improvement versus stable or decline)” value is 0.63. Moreover, under “high proinflammatory endophenotype, 12-mo period, Placebo group 25%”, the “patients improved on MMSE (dichotomized)” value came to 63%. The “improvement in MMSE scores over 12 months as compared to the Placebo group” value (high proinflammatory endophenotype, age, gender, education, APOE4 as covariates, F[1,6]=10.9, p=0.02) is “significant improvement”. The “cognitive course (MMSE) in the low end of the proinflammatory endophenotype” value (low end, CRP and TNFα cut-scores of the naproxen-specific algorithm) is recorded as “trend towards those in the low end to experience significant decline”. In addition, under “within treatment arm”, the “participants with mild decline in MMSE (number)” value is given as 10, the “participants with mild decline in MMSE (percent of arm)” value worked out at 20%, the “participants who declined 3 or more points on MMSE (number)” value was 26 and the “participants who declined 3 or more points on MMSE (percent of arm)” value stood at 51%. Also, under “within treatment arm”, the “participants with improvement in MMSE scores over 12-months (number)” value is on record as 10 and the “participants with improvement in MMSE scores over 12-months (percent of arm)” value is given as 20%.
On to `CS(=O)(=O)c1ccc(C2=C(c3ccccc3)C(=O)OC2)cc1` [Rofecoxib, rofecoxib], for which, under “within treatment arm”, the “participants with mild decline in MMSE (number)” value is listed as 14, the “participants with mild decline in MMSE (percent of arm)” value stood at 25%, the “participants who declined 3 or more points on MMSE (number)” value is given as 23 and the “participants who declined 3 or more points on MMSE (percent of arm)” value amounted to 42%. Moreover, where the note is “within treatment arm”, the “participants with improvement in MMSE scores over 12-months (number)” value is 9 and the “participants with improvement in MMSE scores over 12-months (percent of arm)” value turned out to be 16%. Also, under setting [4], the “participants who remained stable on MMSE (number)” value is 8 and the “participants who remained stable on MMSE (percent of arm)” value stood at 15%.
